Series [1] in a line: Kinetic solubility measurement using Charged Aerosol Detector (CAD). The class given is physicochemical. As to conditions: phosphate buffered saline (PBS) pH 7.4, aqueous buffer, PBS pH 7.4, 1 hour at room temperature, from DMSO stock. The protocol:
Kinetic solubility measurement using Charged Aerosol Detector (CAD). The aqueous kinetic solubility at pH 7.4 was determined by measuring the concentration of solute in solution after precipitation from DMSO stock solution. The DMSO stock solution was diluted 20-fold with phosphate buffered saline (PBS) pH 7.4 and the solubility of the compound was measured after 1 hour equilibration at room temperature by HPLC-CAD. Calibration standards of Ketoconazole and Primidone were prepared by serial dilutions in DMSO at concentrations ranging from 0.016 to 4.5 mg/ml to produce the calibration curve used to determine the solubility of the compounds as previously described in Max W. Robinson et al, Use of Calculated Physicochemical Properties to Enhance Quantitative Response When Using Charged Aerosol Detection, Anal. Chem., 2017, 89 (3), pp 1772-1777, which is herein incorporated by reference.

In another series the target is human Nav1.8 (Homo sapiens (Human), UniProt Q9Y5Y9). The experiment in a line: QPatch 48 HTX electrophysiology, half inactivation state (V1/2) voltage protocol in HEK293-Nav1.8. In kind it is cell-based. As to conditions: HEK293-Nav1.8, QPatch V1/2 protocol, P2 current; average if more than one run. Here is the method: Human embryonic kidney 293 cells (HEK293) expressing human Nav1.8, human Navβ1 and human TREK1 (HEK293-Nav1.8) were grown at 37° C., 5% CO2 in 150 cm^2 flasks. HEK293-Nav1.8 were passaged every 2-3 days into T175 cell culture flasks when confluency reached 80-90%.
Pharmacological assessment of the compounds of the invention was performed using HEK293-Nav1.8 in combination with an assay developed on the QPatch 48 HTX electrophysiological system. HEK293-Nav1.8 were prepared on the day of use by removing culture media, washing in DPBS, adding Accutase (2 ml to cover the surface, aspirate 1 ml then 1.5 min at 37° C.) followed by addition of CHO-SFM II to stop the enzyme digestion and in order to obtain a suspension of 3×10^6 cell/mL.
Compound was prepared in an extracellular solution of the following composition: NaCl (145 mM), KCl (4 mM), CaCl2 (2 mM), MgCl2 (2 mM), HEPES (1 mM), Glucose (10 mM), pH 7.4 with NaOH Osmolality 300 mOsM/L. The intracellular solution was used of the following composition: CsF (115 mM), CsCl (20 mM), NaCl (5 mM), EGTA (10 mM), HEPES (10 mM), Sucrose (20 mM), pH 7.2 with CsOH Osmolality 310 mOsm/L.
Utilizing the voltage-clamp mode in the QPatch 48 HTX system a half inactivation state voltage protocol (V1/2) was used to determine pharmacological activity of compounds of the invention at Nav1.8 ion channels. A V1/2 protocol was utilized with the following voltage steps: a holding voltage of −100 mV was established followed by a 20 ms voltage step to 0 mV (P1), followed by an inactivating voltage step at −46 mV for 8 seconds, followed by a step to −100 mV for 20 ms, before a 20 ms step to 0 mV (P2) before returning to the holding voltage of −100 mV. This voltage protocol was repeated at a frequency of 0.07 Hz., current magnitude was quantified at the P2 step throughout the recording. Inhibition of the measured current amplitude with the compounds of the invention was analyzed by fitting a 6-8 point dose-response curve allowing determination of the fifty percent inhibition concentration (IC50). Within the QPatch HTX software, P2 current was normalized according to measurements made at baseline after compound and after positive reference compound and fit to the following equation: […]
To assess current run-down over the course of the experiment vehicle-only wells were utilized and the normalized current with vehicle-only (n.IVEH) was determined. To correct the compound response for run-down, the currents were corrected according the following formula: […]
Compounds of the invention and the corresponding parent compounds (see Table 1A for structures) were tested for activity against Nav1.8 sodium channels in the above assay in one or more experimental runs and the results are shown in Table 1 below. Potency of the compounds of the invention is reported as a pIC50 value. The pIC50 value is the negative log of the IC50 value, wherein the IC50 value is the half maximal inhibitory concentration measured in molar (M). Potency of the compounds of the invention is compared to the potency of the parent compound. For compounds tested in more than one experimental run, the pIC50 value is reported as an average.
For orientation: Patch clamp records ionic current or voltage across a cell membrane.

The nature of series [2]: Rat IV/PO pharmacokinetic study (prodrug to parent conversion). In kind it is in vivo, Han Wistar rats. The protocol: An in vivo rat pharmacokinetic study was conducted to determine whether the prodrug compounds of the invention are converted to the respective parent compound upon administration. The rat pharmacokinetic study was conducted with a crossover design on two study days with a one-day recovery period between each study day. Three male, dual catheterized (femoral vein and carotid artery) Han Wistar rats were used for the study. Each rat was also implanted with a gastric catheter for oral dose administration. Rats were dosed at 1 mg/kg by a 60 minute intravenous (IV) infusion (femoral vein cannula), then subsequently oral dosed at 2 mg/kg via the gastric cannula, with 48 hours between dosing sessions. Dose solutions of the compound of Example 3 were prepared in 20% Cavitron/5% DMSO/75% water (IV) and in 6% Cavitron/5% DMSO/89% water (PO) without pH adjustment. The dose solutions were filtered using a 0.22 μ filter. The pH of the final dosing solutions was 6.0.
During the intravenous study leg, blood samples were collected from the carotid artery catheter at target times of 15, 30, 60 (end of infusion), 65, 75, 90, 120, 240, 360, 480, 720, and 1440 minutes following the initiation of the intravenous infusion of the compound of Example 3. During the oral study leg, blood samples were collected prior to dosing and at target times of 15, 30, 60, 90, 120, 180, 240, 360, 480, 720, and 1440 minutes following oral administration. Blood samples, 100 μL, were mixed with 100 μL phosphatase inhibitor, a 50 μL aliquot of the blood and inhibitor mixture was transferred to a non-heparinized tube and stored at approximately −80° C. until analyzed. The concentrations in the filtered dose solutions were confirmed by preparing stepwise dilutions first into 50% aqueous acetonitrile with 0.1% formic acid then into heparinized male Wistar Han blood:inhibitor to achieve determined nominal concentrations. Triplicate 50 μL aliquots were removed and were frozen and stored at approximately […] until analyzed by LC-MS/MS as described below.
LC-MS/MS was used to quantify the compound of Example 3 and the corresponding parent compound of Example 3A in the biological samples generated in the above described in vivo study. Samples were prepared by protein precipitation followed by LC-MS/MS analysis employing positive-mode ionization against a set of calibration standards for the compounds prepared in the same matrix. Pharmacokinetic parameters for the study was derived from the concentration versus time profiles. Key pharmacokinetic parameters such as AUC0-∞ (extrapolated area under the blood concentration-time curve), AUC0-t (area under the blood concentration-time curve to the last time point with quantifiable drug), Cmax (maximum concentration), Tmax (time Cmax is achieved), CL (systemic blood clearance), Vdss (steady-state volume of distribution), MRT (mean residence time), and t1/2(half-life) were determined for the compound of Example 3. The key pharmacokinetic parameters such as AUC0-∞, AUC0-t, Cmax, Tmax, MRT, and t1/2 (half-life) were determined for the parent compound Example 3A. Descriptive statistical data of pharmacokinetic parameters were calculated, including the mean and standard deviation (SD) using Microsoft Excel.
The data are shown below in Tables 3A and 3B. Data are reported as mean±SD (N=3).

The mark [3] stands for this setting: average for Examples 1 and 3, one run for 2 and 4, read-out: CAD solubility (Prodrug Compounds of the Invention).
Setting [4] is: male, Han Wistar, whole blood, prodrug in blood, Example 3 1 mg/kg 60 minute intravenous infusion, mean±SD (N=3).
Setting [5] is: average of multiple runs, read-out: CAD solubility (Parent Compounds).

≈ marks a conversion by molar mass, not a printed value. Where two headings read alike, the source gives them in different places.

Sequence of human Nav1.8 (Q9Y5Y9 whole entry): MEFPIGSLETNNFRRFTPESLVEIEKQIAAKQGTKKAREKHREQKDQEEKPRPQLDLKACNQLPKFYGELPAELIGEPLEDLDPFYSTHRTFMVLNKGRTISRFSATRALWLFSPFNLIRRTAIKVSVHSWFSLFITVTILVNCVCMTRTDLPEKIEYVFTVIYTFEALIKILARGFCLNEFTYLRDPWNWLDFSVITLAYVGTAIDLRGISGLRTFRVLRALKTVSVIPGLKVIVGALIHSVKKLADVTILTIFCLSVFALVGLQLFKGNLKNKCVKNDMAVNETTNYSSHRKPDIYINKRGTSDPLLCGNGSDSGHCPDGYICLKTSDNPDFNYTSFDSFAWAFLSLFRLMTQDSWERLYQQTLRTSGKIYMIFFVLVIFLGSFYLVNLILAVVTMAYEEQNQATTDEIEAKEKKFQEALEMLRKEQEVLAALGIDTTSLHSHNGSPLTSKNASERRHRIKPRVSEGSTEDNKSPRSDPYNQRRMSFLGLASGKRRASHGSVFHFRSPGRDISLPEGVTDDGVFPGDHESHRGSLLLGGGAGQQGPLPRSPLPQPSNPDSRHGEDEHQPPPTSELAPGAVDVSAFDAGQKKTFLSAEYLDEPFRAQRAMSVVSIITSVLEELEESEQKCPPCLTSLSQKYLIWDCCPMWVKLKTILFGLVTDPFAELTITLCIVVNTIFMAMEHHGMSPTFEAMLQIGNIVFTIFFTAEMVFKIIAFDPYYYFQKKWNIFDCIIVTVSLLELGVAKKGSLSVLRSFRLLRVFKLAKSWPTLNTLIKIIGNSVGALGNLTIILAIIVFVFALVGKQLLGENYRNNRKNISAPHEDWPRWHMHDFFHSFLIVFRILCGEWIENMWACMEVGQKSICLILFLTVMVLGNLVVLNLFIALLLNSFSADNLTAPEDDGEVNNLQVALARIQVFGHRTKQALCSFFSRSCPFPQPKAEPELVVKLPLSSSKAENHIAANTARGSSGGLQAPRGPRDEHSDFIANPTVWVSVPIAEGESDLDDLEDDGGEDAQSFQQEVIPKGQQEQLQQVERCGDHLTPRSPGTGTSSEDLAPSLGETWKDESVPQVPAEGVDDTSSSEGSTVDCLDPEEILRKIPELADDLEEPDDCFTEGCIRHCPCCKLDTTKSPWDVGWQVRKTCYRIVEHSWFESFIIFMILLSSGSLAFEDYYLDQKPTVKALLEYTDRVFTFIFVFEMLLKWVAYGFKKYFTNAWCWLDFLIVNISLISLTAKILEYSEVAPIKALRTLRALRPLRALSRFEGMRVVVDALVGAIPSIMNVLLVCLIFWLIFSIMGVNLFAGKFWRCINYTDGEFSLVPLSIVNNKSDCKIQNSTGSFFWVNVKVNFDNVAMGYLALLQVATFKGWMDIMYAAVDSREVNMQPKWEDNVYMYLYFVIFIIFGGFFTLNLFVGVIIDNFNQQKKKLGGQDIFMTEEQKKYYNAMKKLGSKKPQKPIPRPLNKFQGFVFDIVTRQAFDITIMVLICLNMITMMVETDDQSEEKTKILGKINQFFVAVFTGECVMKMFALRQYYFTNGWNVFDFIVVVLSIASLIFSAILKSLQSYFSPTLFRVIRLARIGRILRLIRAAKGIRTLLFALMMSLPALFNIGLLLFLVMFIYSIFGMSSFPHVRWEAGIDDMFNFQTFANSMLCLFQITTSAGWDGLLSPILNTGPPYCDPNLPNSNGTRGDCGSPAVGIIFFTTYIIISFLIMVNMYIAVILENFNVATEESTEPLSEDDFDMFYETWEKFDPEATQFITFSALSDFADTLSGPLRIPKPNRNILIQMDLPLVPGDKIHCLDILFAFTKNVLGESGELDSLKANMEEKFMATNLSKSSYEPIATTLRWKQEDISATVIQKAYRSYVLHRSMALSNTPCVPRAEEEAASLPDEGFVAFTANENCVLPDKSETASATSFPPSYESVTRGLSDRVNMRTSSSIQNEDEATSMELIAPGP

Broadly, the solubility is how much of the substance goes into solution per volume. For the compound `Cc1cc(F)ccc1N1CN(c2ccc(=O)n(COP(=O)(O)O)c2C)C(=O)c2cc(C(F)(F)F)ccc21` [Example 1, (5-(1-(4-Fluoro-2-methylphenyl)-4-oxo-6-(trifluoromethyl)-1,4-dihydroquinazolin-3(2H)-yl)-6-methyl-2-oxopyridin-1(2H)-yl)methyl dihydrogen phosphate], the solubility at 1 h in series [1] (setting [3]) was greater than 260 µg/mL. Also, the “[Nav1.8] pIC50 (Compounds of the Invention)” value on human Nav1.8 was 6.8.
Taken in the same sequence, the figures for `Cc1cc(F)ccc1N1CN(c2ccc(=O)n(COP(=O)(O)O)c2C)C(=O)c2ccc(C(F)(F)F)cc21` [Example 2, (5-(1-(4-fluoro-2-methylphenyl)-4-oxo-7-(trifluoromethyl)-1,4-dihydroquinazolin-3(2H)-yl)-6-methyl-2-oxopyridin-1(2H)-yl)methyl dihydrogen phosphate] were greater than 193 µg/mL and 6.6.
As a reminder, the AUC(0-inf) is total exposure, with the tail of the curve extrapolated. By AUC(0-t) is commonly meant the area under the concentration-time curve up to a stated or last time point. What is called Cmax is the maximum level reached in the sampled fluid or tissue. On to `Cc1cc(F)ccc1N1CN(c2ccc(=O)n(COP(=O)(O)O)c2C)C(=O)c2cc(Cl)ccc21` [Example 3, (5-(6-chloro-1-(4-fluoro-2-methylphenyl)-4-oxo-1,4-dihydroquinazolin-3(2H)-yl)-6-methyl-2-oxopyridin-1(2H)-yl)methyl dihydrogen phosphate], for which the solubility at 1 h in series [1] (setting [3]) worked out at 102 µg/mL. Moreover, in series [2] (setting [4]), the AUC(0-inf) turned out to be 250 ± 30 ng·h/mL, the AUC(0-t) turned out to be 240 ± 40 ng·h/mL and the Cmax is 260 ± 24 ng/mL. Besides, the clearance in series [2] (male, Han Wistar, whole blood, prodrug, systemic blood clearance, Example 3 1 mg/kg 60 minute intravenous infusion, mean±SD (N=3)) is 58 ± 9 mL/min/kg. Moreover, the “quantifiable concentrations following oral administration” value in series [2] (prodrug in blood, Example 3 2 mg/kg oral via gastric cannula, text runs over cells r6-r10) was “There were no”. Besides, the “[Nav1.8] pIC50 (Compounds of the Invention)” value on human Nav1.8 is recorded as 6.9.
Regarding `Cc1cc(OC(F)(F)F)ccc1N1CN(c2ccc(=O)n(COP(=O)(O)O)c2C)C(=O)c2cc(C(F)(F)F)cnc21` [Example 4, (6-methyl-5-(1-(2-methyl-4-(trifluoromethoxy)phenyl)-4-oxo-6-(trifluoromethyl)-1,4-dihydropyrido[2,3-d]pyrimidin-3(2H)-yl)-2-oxopyridin-1(2H)-yl)methyl dihydrogen phosphate], the solubility at 1 h in series [1] (setting [3]) was 181 µg/mL. Moreover, the “[Nav1.8] pIC50 (Compounds of the Invention)” value at human Nav1.8 was found to be 6.1.
As to `Cc1cc(F)ccc1N1CN(c2ccc(=O)[nH]c2C)C(=O)c2cc(C(F)(F)F)ccc21` [Parent Compound 1A, 1-(4-fluoro-2-methylphenyl)-3-(2-methyl-6-oxo-1,6-dihydropyridin-3-yl)-6-(trifluoromethyl)-2,3-dihydroquinazolin-4(1H)-one], in series [1] (setting [5]), the solubility at 1 h amounted to 48 µg/mL (≈ 111 µM). For the same compound, the “[Nav1.8] pIC50 (Parent Compounds)” value on human Nav1.8 amounted to 8.
Take `Cc1cc(F)ccc1N1CN(c2ccc(=O)[nH]c2C)C(=O)c2ccc(C(F)(F)F)cc21` [Parent Compound 2A, 1-(4-fluoro-2-methylphenyl)-3-(2-methyl-6-oxo-1,6-dihydropyridin-3-yl)-7-(trifluoromethyl)-2,3-dihydroquinazolin-4(1H)-one]: the solubility at 1 h in series [1] (setting [5]) amounted to 51 µg/mL (≈ 118 µM).
In the case of `Cc1cc(F)ccc1N1CN(c2ccc(=O)[nH]c2C)C(=O)c2cc(Cl)ccc21` [Parent Compound 3A, 6-chloro-1-(4-fluoro-2-methylphenyl)-3-(2-methyl-6-oxo-1,6-dihydropyridin-3-yl)-2,3-dihydroquinazolin-4(1H)-one], the solubility at 1 h in series [1] (setting [5]) came to 54 µg/mL (≈ 136 µM).
Regarding `Cc1cc(OC(F)(F)F)ccc1N1CN(c2ccc(=O)[nH]c2C)C(=O)c2cc(C(F)(F)F)cnc21` [Parent Compound 4A, 1-(2-methyl-4-(trifluoromethoxy)phenyl)-3-(2-methyl-6-oxo-1,6-dihydropyridin-3-yl)-6-(trifluoromethyl)-2,3-dihydropyrido[2,3-d]pyrimidin-4(1H)-one], the solubility at 1 h in series [1] (setting [5]) was 87 µg/mL (≈ 175 µM). Further, the “[Nav1.8] pIC50 (Parent Compounds)” value at human Nav1.8 came out at 7.5.

Values taken from patent publication US20250084112A1, “Chemical Compounds Useful for Inhibiting Nav1.8 Voltage-Gated Sodium Channels and Treating Nav1.8 Mediated Diseases” (GlaxoSmithKline Intellectual Property Development Limited, priority 2021, published 2025).
